Data on 17 molecules can be found in patent US10618903B2, “Heteroaryl substituted aminopyridine compounds” (BRISTOL-MYERS SQUIBB COMPANY, priority 2015, dated 2020).

The target in one data set is IRAK4 (Homo sapiens (Human), UniProt Q9NWZ3). The data set can be described thus: IRAK4 Inhibition Assay. In kind it is biochemical. The settings on record: ATP 500 μM; IRAK4 0.6 nM. Put shortly:
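Mobility-shift readout: phosphorylated and unphosphorylated fluorescent peptide (1.5 μM) resolved by electrophoresis after a 60 min room-temperature reaction stopped with EDTA. Reaction holds 0.6 nM IRAK4, 500 μM ATP and 1.6% DMSO in HEPES pH 7.2/MgCl2/Brij 35/DTT buffer; percent inhibition set against vehicle and no-enzyme controls.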

A short description of the next data set: Caco Permeability Assay. Format: in vitro ADME. Conditions: human, Caco-2, Caco-2 cells, 3 μM compound. As to the method:
Thirteen to 27 days prior to assay, Caco-2 cells were seeded onto collagen-coated polycarbonate filter membranes in 24-well transwell plates at a density of 1.45×10^5 cells/cm^2, approximately 4.8×10^4 cells per well. The cells were grown in a culture medium consisting of DMEM supplemented with 10% fetal bovine serum, 10 mM HEPES, 1% nonessential amino acids, 2 mM L-glutamine, 100 U/mL penicillin-G, and 100 μg/mL streptomycin. The culture medium was replaced every 3 days and the cells were maintained at 37° C. in a 95% relative humidity and 5% CO2 atmosphere. The cells were evaluated for tight junction formation just prior to assay. The test compound was solubilized to 10 mM in 100% DMSO and diluted to 3 μM in assay buffer. Permeability studies were initiated by adding 200 μL assay buffer plus/minus compound to the apical transwell compartment and 600 μL assay buffer plus/minus compound to the basolateral compartment of the 24-well transwell low-binding cluster plate. For apical-to-basolateral (A to B) permeability (absorptive direction), buffer containing compound was placed in the apical compartment (donor wells), while buffer alone was placed in the corresponding basolateral compartments (receiver wells). For basolateral-to-apical (B to A) permeability (secretive direction), buffer containing compound was placed in the basolateral compartment (donor wells), while buffer alone was placed in the corresponding apical compartments (receiver wells). Transwells were then incubated for 2 hours at 37° C. in a 95% relative humidity and 5% CO2 atmosphere with gentle agitation. Following incubation, 100 μL was removed from each apical and basolateral compartment and transferred to 96-well low binding plates that had been previously loaded with 100 µL/well of acetonitrile containing 250 nM propranolol, 250 nM diclofenac, and 500 nM tolbutamide as internal standards. The samples were subsequently analyzed by LC-MS/MS to determine concentrations of compound.

Data set [1] has as its system IL-6 levels in human whole blood stimulated with a TLR2 agonist. The data set can be described thus: IRAK4 Whole Blood Assay (lipoteichoic acid/TLR2-stimulated IL-6). In kind it is cell-based. Conditions: lipoteichoic acid 10 μg/mL, IL-6 readout. The essentials: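 ACD-A-anticoagulated human whole blood was preincubated with compounds for 60 min at 37 °C under 5% CO2. It was then stimulated with 10 μg/mL lipoteichoic acid (final) in RPMI for 5 h. IL-6 in plasma supernatants was measured by flow cytometry bead assay.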

A value given as a limit tells only on which side of the number the result lay.

Sequence of IRAK4 (Q9NWZ3 whole entry): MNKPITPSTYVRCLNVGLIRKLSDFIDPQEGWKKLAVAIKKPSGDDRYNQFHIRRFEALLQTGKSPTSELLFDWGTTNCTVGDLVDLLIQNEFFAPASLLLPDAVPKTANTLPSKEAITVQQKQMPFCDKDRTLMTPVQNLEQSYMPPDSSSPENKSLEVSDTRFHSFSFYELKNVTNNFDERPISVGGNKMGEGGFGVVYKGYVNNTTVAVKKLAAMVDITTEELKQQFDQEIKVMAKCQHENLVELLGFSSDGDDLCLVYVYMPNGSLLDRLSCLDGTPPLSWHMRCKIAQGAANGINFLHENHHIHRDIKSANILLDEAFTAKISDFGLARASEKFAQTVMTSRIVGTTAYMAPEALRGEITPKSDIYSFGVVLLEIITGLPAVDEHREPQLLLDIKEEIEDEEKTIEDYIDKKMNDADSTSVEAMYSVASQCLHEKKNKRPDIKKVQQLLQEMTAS

On to `CC(C)Nc1cc(-c2cnn3cc(Cl)cnc23)ncc1C(=O)N[C@H]1CC[C@H](NC(=O)[C@H](C)O)CC1` [Example 49, 6-(6-chloropyrazolo[1,5-a]pyrimidin-3-yl)-N-((1S,4r)-4-((S)-2-hydroxypropanamido)cyclohexyl)-4-(isopropylamino)nicotinamide], for which, on IRAK4, the IC50 came out at 18 nM. In “Caco Permeability Assay”, the Papp at 2 h, 3 µM was below 1.5 ×10⁻⁶ cm/s. The same molecule registered an EC50 in data set [1] (Homo sapiens) of 2920 nM.
For `CC(C)(O)[C@H]1CC[C@H](Nc2cc(-c3cnn4cc(Cl)cnc34)ncc2C(=O)NC[C@@H](F)C(C)(C)O)C1` [Example 50, 6-(6-chloropyrazolo[1,5-a]pyrimidin-3-yl)-N—((R)-2-fluoro-3-hydroxy-3-methylbutyl)-4-(((1S,3S)-3-(2-hydroxypropan-2-yl)cyclopentyl)amino)nicotinamide], the IC50 on IRAK4 stood at 2 nM. The same molecule had a Papp at 2 h, 3 µM in “Caco Permeability Assay” of 3 ×10⁻⁶ cm/s. The same molecule came in with an EC50 in data set [1] (Homo sapiens) of 690 nM.
With `CC(C)(O)[C@H](F)CNC(=O)c1cnc(-c2cnn3cc(Cl)cnc23)cc1Nc1cnn(C2CCOCC2)c1` [Example 52, (R)-6-(6-chloropyrazolo[1,5-a]pyrimidin-3-yl)-N-(2-fluoro-3-hydroxy-3-methylbutyl)-4-((1-(tetrahydro-2H-pyran-4-yl)-1H-pyrazol-4-yl)amino)nicotinamide], the IC50 at IRAK4 came to 3 nM. This molecule gave a Papp at 2 h, 3 µM in “Caco Permeability Assay” below 1.5 ×10⁻⁶ cm/s. For the same molecule, in data set [1] (Homo sapiens), the response was half-maximal at 280 nM (EC50).
The like results for `CCNc1cc(-c2cnn3cc(Cl)cnc23)ncc1C(=O)NC[C@@H](F)C(C)(C)O` [Example 56, (R)-6-(6-chloropyrazolo[1,5-a]pyrimidin-3-yl)-4-(ethylamino)-N-(2-fluoro-3-hydroxy-3-methylbutyl) nicotinamide] were, in that order, 5 nM, 14.3 ×10⁻⁶ cm/s and 360 nM.
For the molecule `CC(C)(O)CNc1cc(-c2cnn3cc(Cl)cnc23)ncc1C(=O)NC[C@@H](F)C(C)(C)O` [Example 58, (R)-6-(6-chloropyrazolo[1,5-a]pyrimidin-3-yl)-N-(2-fluoro-3-hydroxy-3-methylbutyl)-4-((2-hydroxy-2-methylpropyl)amino)nicotinamide], the 50% inhibitory concentration (IC50) at IRAK4 worked out at 14 nM. Besides, the apparent permeability (Papp) at 2 h, 3 µM in the data set “Caco Permeability Assay” is below 1.5 ×10⁻⁶ cm/s. In data set [1] (Homo sapiens), this molecule returned an EC50 of 350 nM.
The like results for `CC(C)(O)[C@H](F)CNC(=O)c1cnc(-c2cnn3cc(Cl)cnc23)cc1NC1CCC1` [Example 60, (R)-6-(6-chloropyrazolo[1,5-a]pyrimidin-3-yl)-4-(cyclobutylamino)-N-(2-fluoro-3-hydroxy-3-methylbutyl)nicotinamide] were, in that order, 4 nM, 27 ×10⁻⁶ cm/s and 4930 nM.
Consider `C[C@H](F)CNc1cc(-c2cnn3cc(Cl)cnc23)ncc1C(=O)NC[C@@H](F)C(C)(C)O` [Example 61, 6-(6-chloropyrazolo[1,5-a]pyrimidin-3-yl)-N—((R)-2-fluoro-3-hydroxy-3-methylbutyl)-4-(((S)-2-fluoropropyl)amino)nicotinamide], for which, at IRAK4, the IC50 was 6 nM. Besides, in “Caco Permeability Assay”, the Papp at 2 h, 3 µM was determined as 19.7 ×10⁻⁶ cm/s. Moreover, a half-maximal response in data set [1] (Homo sapiens) (EC50) required 1820 nM.
Regarding `CC(C)(O)[C@H](F)CNC(=O)c1cnc(-c2cnn3cc(Cl)cnc23)cc1NC1CC(F)(F)C1` [Example 65, (R)-6-(6-chloropyrazolo[1,5-a]pyrimidin-3-yl)-4-((3,3-difluorocyclobutyl)amino)-N-(2-fluoro-3-hydroxy-3-methylbutyl)nicotinamide], the concentration for half-maximal inhibition (IC50) at IRAK4 was found to be 4 nM. This molecule came in with a Papp at 2 h, 3 µM in “Caco Permeability Assay” of 12.6 ×10⁻⁶ cm/s. Also, the EC50 in data set [1] (Homo sapiens) is 3470 nM.
In the case of `CC(C)(O)[C@H](F)CNC(=O)c1cnc(-c2cnn3cc(Cl)cnc23)cc1NC1CCCC1` [Example 67, (R)-6-(6-chloropyrazolo[1,5-a]pyrimidin-3-yl)-4-(cyclopentylamino)-N-(2-fluoro-3-hydroxy-3-methylbutyl)nicotinamide], the IC50 at IRAK4 was determined as 2 nM. This molecule also showed a Papp at 2 h, 3 µM in the data set “Caco Permeability Assay” of 18.4 ×10⁻⁶ cm/s. Besides, it took 3080 nM to reach a half-maximal effect in data set [1] (Homo sapiens) (EC50).
In the case of `CC(C)(O)[C@H](F)CNC(=O)c1cnc(-c2cnn3cc(Cl)cnc23)cc1NC1CCN(S(C)(=O)=O)CC1` [Example 68, (R)-6-(6-chloropyrazolo[1,5-a]pyrimidin-3-yl)-N-(2-fluoro-3-hydroxy-3-methylbutyl)-4-((1-(methylsulfonyl)piperidin-4-yl)amino) nicotinamide], the IC50 on IRAK4 came out at 2 nM. Also, the Papp at 2 h, 3 µM in the data set “Caco Permeability Assay” is below 1.5 ×10⁻⁶ cm/s. Further, the EC50 in data set [1] (Homo sapiens) is 420 nM.
Consider `CC[C@@H](C)Nc1cc(-c2cnn3cc(Cl)cnc23)ncc1C(=O)NC[C@@H](F)C(C)(C)O` [Example 70, 4-(((R)-sec-butyl)amino)-6-(6-chloropyrazolo[1,5-a]pyrimidin-3-yl)-N—((R)-2-fluoro-3-hydroxy-3-methylbutyl)nicotinamide], for which the IC50 at IRAK4 stood at 3 nM. In “Caco Permeability Assay”, this molecule had a Papp at 2 h, 3 µM of 7.3 ×10⁻⁶ cm/s. Further, in data set [1] (Homo sapiens), the half-maximal effective concentration (EC50) is 840 nM.
For the molecule `CC(C)(O)[C@H](F)CNC(=O)c1cnc(-c2cnn3cc(Cl)cnc23)cc1Nc1cnn(CC(F)F)c1` [Example 71, (R)-6-(6-chloropyrazolo[1,5-a]pyrimidin-3-yl)-4-((1-(2,2-difluoroethyl)-1H-pyrazol-4-yl)amino)-N-(2-fluoro-3-hydroxy-3-methylbutyl)nicotinamide], at IRAK4, the IC50 came out at 1 nM. In “Caco Permeability Assay”, this molecule showed a Papp at 2 h, 3 µM of 1.7 ×10⁻⁶ cm/s. The molecule also registered an EC50 in data set [1] (Homo sapiens) of 70 nM.
The like results for `CC(C)(O)[C@H](F)CNC(=O)c1cnc(-c2cnn3cc(Cl)cnc23)cc1NC12CCC(O)(CC1)C2` [Example 73, (R)-6-(6-chloropyrazolo[1,5-a]pyrimidin-3-yl)-N-(2-fluoro-3-hydroxy-3-methylbutyl)-4-((4-hydroxybicyclo[2.2.1]heptan-1-yl)amino)nicotinamide] were, in that order, 2 nM, below 1.5 ×10⁻⁶ cm/s and 710 nM.
Turning to `CC(O)CCNc1cc(-c2cnn3cc(Cl)cnc23)ncc1C(=O)NC[C@@H](F)C(C)(C)O` (stereo partly drawn) [Example 82, 6-(6-chloropyrazolo[1,5-a]pyrimidin-3-yl)-N—((R)-2-fluoro-3-hydroxy-3-methylbutyl)-4-((3-hydroxybutyl)amino)nicotinamide], the IC50 at IRAK4 is 6 nM. Moreover, in the data set “Caco Permeability Assay”, the Papp at 2 h, 3 µM is below 1.5 ×10⁻⁶ cm/s. The response in data set [1] (Homo sapiens) was half-maximal at 580 nM (EC50).
Regarding `CC(C)(O)[C@H](F)CNC(=O)c1cnc(-c2cnn3cc(Cl)cnc23)cc1NC1CCC(F)C1` (stereo partly drawn) [Example 83, 6-(6-chloropyrazolo[1,5-a]pyrimidin-3-yl)-N—((R)-2-fluoro-3-hydroxy-3-methylbutyl)-4-((3-fluorocyclopentyl)amino)nicotinamide], on IRAK4, the 50% inhibitory concentration (IC50) worked out at 1 nM. Further, the Papp at 2 h, 3 µM in the data set “Caco Permeability Assay” was 15.9 ×10⁻⁶ cm/s. In data set [1], the 50% effective concentration (EC50) was found to be 810 nM.
On to `CC(C)Nc1cc(-c2cnn3cc(C#N)cnc23)ncc1C(=O)NC[C@@H](F)C(C)(C)O` [Example 87, (R)-6-(6-cyanopyrazolo[1,5-a]pyrimidin-3-yl)-N-(2-fluoro-3-hydroxy-3-methylbutyl)-4-(isopropylamino)nicotinamide], for which the half-inhibitory concentration (IC50) on IRAK4 worked out at 2 nM. In addition, the Papp at 2 h, 3 µM in the data set “Caco Permeability Assay” came to 5.6 ×10⁻⁶ cm/s. Besides, the midpoint of the response in data set [1] (Homo sapiens), the EC50, lay at 250 nM.
Turning to `CC(C)(O)[C@H](F)CNC(=O)c1cnc(-c2cnn3cc(C#N)cnc23)cc1NC1CCOCC1` [Example 90, (R)-6-(6-cyanopyrazolo[1,5-a]pyrimidin-3-yl)-N-(2-fluoro-3-hydroxy-3-methylbutyl)-4-((tetrahydro-2H-pyran-4-yl)amino)nicotinamide], the IC50 on IRAK4 was 4 nM. This molecule gave a Papp at 2 h, 3 µM in the data set “Caco Permeability Assay” of 2.8 ×10⁻⁶ cm/s. In data set [1] (Homo sapiens), this molecule displayed a half-maximal effective concentration (EC50) of 400 nM.
